Tests used:
SREBP-2 = SREBP-2 (Homo sapiens (Human), UniProt Q12772); experiment: In vitro assay SREBP-2: PathHunter U2OS SREBP-2 Nuclear Translocation Cell Line, U18666A-stimulated; assay type: cell-based; settings: PathHunter U2OS SREBP-2 nuclear translocation cells, U18666A 10 μM, overnight (16 hours)
LXRβ = LXRβ (Homo sapiens (Human), UniProt P55055); experiment: In vitro assay LXRβ: PathHunter NHR CHO cells, LXRβ / Steroid Receptor Co-activator Peptide enzyme fragment complementation; assay type: cell-based; settings: PathHunter NHR CHO cells, full-length human LXRβ and SRCP, chemiluminescent signal; read-out: LXRβ PPI
LXRβ, sequence (P55055 whole entry, the tested form may be a part): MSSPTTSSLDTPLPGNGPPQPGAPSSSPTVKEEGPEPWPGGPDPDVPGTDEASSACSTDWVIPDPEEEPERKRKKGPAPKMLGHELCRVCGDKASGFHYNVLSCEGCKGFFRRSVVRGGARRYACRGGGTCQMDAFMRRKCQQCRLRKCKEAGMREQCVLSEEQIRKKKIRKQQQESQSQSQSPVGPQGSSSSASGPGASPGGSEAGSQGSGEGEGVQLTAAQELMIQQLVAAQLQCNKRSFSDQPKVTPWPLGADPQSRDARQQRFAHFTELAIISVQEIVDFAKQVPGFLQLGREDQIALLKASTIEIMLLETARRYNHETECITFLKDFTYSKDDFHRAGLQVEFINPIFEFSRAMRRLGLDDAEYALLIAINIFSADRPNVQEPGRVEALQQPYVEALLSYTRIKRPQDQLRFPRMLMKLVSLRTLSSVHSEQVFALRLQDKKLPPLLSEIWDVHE
In short: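 Co-activator recruitment measured by chemiluminescence after signal generation. The CHO line carries full-length human LXRβ tagged with ProLink and an SRCP–enzyme acceptor fusion in the nucleus; cells sat overnight at 37° C before testing, in charcoal-dextran filtered serum medium with 1% final vehicle.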

SMILES	IC50 (SREBP-2)	EC50 (LXRβ)
COc1cncnc1N1CCN(C(=O)CC[C@@H](C)[C@H]2CC[C@H]3[C@@H]4CC=C5C[C@@H](O)CC[C@]5(C)[C@H]4CC[C@]23C)[C@@H](C)C1 [Example 616, (R)-4-((3S,8S,9S,10R,13R,14S,17R)-3-hydroxy-10,13-dimethyl-2,3,4,7,8,9,10,11,12,13,14,15,16,17-tetradecahydro-1H-cyclopenta[a]phenanthren-17-yl)-1-((S)-4-(5-methoxypyrimidin-4-yl)-2-methylpiperazin-1-yl)pentan-1-one]	< 250 nM	> 10 µM
C[C@H](CCC(=O)N1CCN(C(=O)c2nnnn2C)CC1)[C@H]1CC[C@H]2[C@@H]3CC=C4C[C@@H](O)CC[C@]4(C)[C@H]3CC[C@]12C [Example 363, (R)-4-((3S,8S,9S,10R,13R,14S,17R)-3-hydroxy-10,13-dimethyl-2,3,4,7,8,9,10,11,12,13,14,15,16,17-tetradecahydro-1H-cyclopenta[a]phenanthren-17-yl)-1-(4-(1-methyl-1H-tetrazole-5-carbonyl)piperazin-1-yl)pentan-1-one]	< 250 nM	> 10 µM
C[C@H](CCC(=O)N1CCCC(C)(CO)CC1)[C@H]1CC[C@H]2[C@@H]3CC=C4C[C@@H](O)CC[C@]4(C)[C@H]3CC[C@]12C (stereo partly drawn) [Example 375, (4R)-4-((3S,8S,9S,10R,13R,14S,17R)-3-hydroxy-10,13-dimethyl-2,3,4,7,8,9,10,11,12,13,14,15,16,17-tetradecahydro-1H-cyclopenta[a]phenanthren-17-yl)-1-(4-(hydroxymethyl)-4-methylazepan-1-yl)pentan-1-one]	< 250 nM	> 10 µM
CCn1c(CC[C@@H](C)[C@H]2CC[C@H]3[C@@H]4CC=C5C[C@@H](O)CC[C@]5(C)[C@H]4CC[C@]23C)n[nH]c1=S [Example 353, 4-ethyl-5-((R)-3-((3S,8S,9S,10R,13R,14S,17R)-3-hydroxy-10,13-dimethyl-2,3,4,7,8,9,10,11,12,13,14,15,16,17-tetradecahydro-1H-cyclopenta[a]phenanthren-17-yl)butyl)-2,4-dihydro-3H-1,2,4-triazole-3-thione]	< 250 nM	> 10 µM
C[C@H](CCC(=O)N(C)C)[C@H]1CC[C@H]2[C@@H]3CC=C4C[C@](C)(O)CC[C@]4(C)[C@H]3CC[C@]12C [Example 121, (R)-4-((3R,8S,9S,10R,13R,14S,17R)-3-hydroxy-3,10,13-trimethyl-2,3,4,7,8,9,10,11,12,13,14,15,16,17-tetradecahydro-1H-cyclopenta [a]phenanthren-17-yl) -N,N-dimethylpentanamide]	> 10000 nM	1 to 10 µM
C[C@H](CCc1cncs1)[C@H]1CC[C@H]2[C@@H]3CC=C4C[C@@H](O)CC[C@]4(C)[C@H]3CC[C@]12C [Example 173, (3S,8S,9S,10R,13R,14S,17R)-10,13-dimethyl-17-((R)-4-(thiazol-5-yl)butan-2-yl)-2,3,4,7,8,9,10,11,12,13,14,15,16,17-tetradecahydro-1H-cyclopenta[a]phenanthren-3-ol]	250 to 1000 nM	> 10 µM
C[C@H](CCC(=O)N1CCN(S(N)(=O)=O)CC1)[C@H]1CC[C@H]2[C@@H]3CC=C4C[C@@H](O)CC[C@]4(C)[C@H]3CC[C@]12C [Example 359, 4-[(4R)-4-[(1R,3aS,3bS,7S,9aR,9bS,11aR)-7-hydroxy-9a,11a-dimethyl-1H,2H,3H,3aH,3bH,4H,6H,7H,8H,9H,9aH,9bH,10H,11H,11aH-cyclopenta[a]phenanthren-1-yl]pentanoyl]piperazine-1-sulfonamide]	< 250 nM	> 10 µM
C[C@H](CCC(=O)N1CCN(C(=O)c2cn(C)nn2)C[C@@H]1C)[C@H]1CC[C@H]2[C@@H]3CC=C4C[C@@H](O)CC[C@]4(C)[C@H]3CC[C@]12C [Example 587, (R)-4-((3S,8S,9S,10R,13R,14S,17R)-3-hydroxy-10,13-dimethyl-2,3,4,7,8,9,10,11,12,13,14,15,16,17-tetradecahydro-1H-cyclopenta[a]phenanthren-17-yl)-1-((S)-2-methyl-4-(1-methyl-1H-1,2,3-triazole-4-carbonyl)piperazin-1-yl)pentan-1-one]	< 250 nM	> 10 µM
C[C@H](CCc1ccncc1)[C@H]1CC[C@H]2[C@@H]3CC=C4C[C@@H](O)CC[C@]4(C)[C@H]3CC[C@]12C [Example 160, (3S,8S,9S,10R,13R,14S,17R)-10,13-dimethyl-17-((R)-4-(pyridin-4-yl)butan-2-yl)-2,3,4,7,8,9,10,11,12,13,14,15,16,17-tetradecahydro-1H-cyclopenta[a]phenanthren-3-ol]	250 to 1000 nM	> 10 µM
C[C@H](CCC(=O)N1CCN(C(=O)OC2CC2)CC1)[C@H]1CC[C@H]2[C@@H]3CC=C4C[C@@H](O)CC[C@]4(C)[C@H]3CC[C@]12C [Example 340, cyclopropyl4-[(4R)-4-[(1R,3aS,3bS,7S,9aR,9bS,11aR)-7-hydroxy-9a,11a-dimethyl-1H,2H,3H,3aH,3bH,4H,6H,7H,8H,9H,9aH,9bH,10H,11H,11aH-cyclopenta[a]phenanthren-1-yl]pentanoyl]piperazine-1-carboxylate]	< 250 nM	> 10 µM
C[C@H](CCC(=O)N1CCC[C@@H](Oc2ccncn2)C1)[C@H]1CC[C@H]2[C@@H]3CC=C4C[C@@H](O)CC[C@]4(C)[C@H]3CC[C@]12C [Example 217, (4R)-4-[(1R,3aS,3bS,7S,9aR,9bS,11aR)-7-hydroxy-9a,11a-dimethyl-1H,2H,3H,3aH,3bH,4H,6H,7H,8H,9H,9aH,9bH,10H,11H,11aH-cyclopenta[a]phenanthren-1-yl]-1-[(3R)-3-(pyrimidin-4-yloxy)piperidin-1-yl]pentan-1-one]	–	> 10 µM
COC(=O)N1CCN(C(=O)CCC[C@H]2CC[C@H]3[C@@H]4CC=C5C[C@@H](O)CC[C@]5(C)[C@H]4CC[C@]23C)CC1 [Example 283]	–	> 10 µM
C[C@H](CCC(=O)N1CCN(C(=O)C2CC2)CC1)[C@H]1CC[C@H]2[C@@H]3CC=C4C[C@@H](O)CC[C@]4(C)[C@H]3CC[C@]12C [Example 314, (4R)-4-[(1R,3aS,3bS,7S,9aR,9bS,11aR)-7-hydroxy-9a,11a-dimethyl-1H,2H,3H,3aH,3bH,4H,6H,7H,8H,9H,9aH,9bH,10H,11H,11aH-cyclopenta[a]phenanthren-1-yl]-1-(4-cyclopropanecarbonylpiperazin-1-yl)pentan-1-one]	–	> 10 µM
CCCCN(OC)C(=O)CC[C@@H](C)[C@H]1CC[C@H]2[C@@H]3CC=C4C[C@@H](O)CC[C@]4(C)[C@H]3CC[C@]12C [Example 17, (R)—N-butyl-4-((3S,8S,9S,10R,13R,14S,17R)-3-hydroxy-10,13-dimethyl-2,3,4,7,8,9,10,11,12,13,14,15,16,17-tetradecahydro-1H-cyclopenta[a]phenanthren-17-yl)-N-methoxypentanamide]	–	1 to 10 µM
C[C@H](CCC(=O)N1CCC(Oc2cnccn2)CC1)[C@H]1CC[C@H]2[C@@H]3CC=C4C[C@@H](O)CC[C@]4(C)[C@H]3CC[C@]12C [Example 220, (R)-4-((3S,8S,9S,10R,13R,14S,17R)-3-hydroxy-10,13-dimethyl-2,3,4,7,8,9,10,11,12,13,14,15,16,17-tetradecahydro-1H-cyclopenta[a]phenanthren-17-yl)-1-(4-(pyrazin-2-yloxy)piperidin-1-yl)pentan-1-one]	–	1 to 10 µM
C[C@H](CCC(=O)N(C)OCCCO)[C@H]1CC[C@H]2[C@@H]3CC=C4C[C@@H](O)CC[C@]4(C)[C@H]3CC[C@]12C [Example 30, (R)-4-((3S,8S,9S,10R,13R,14S,17R)-3-hydroxy-10,13-dimethyl-2,3,4,7,8,9,10,11,12,13,14,15,16,17-tetradecahydro-1H-cyclopenta[a]phenanthren-17-yl)-N-(3-hydroxypropoxy)-N-methylpentanamide]	–	1 to 10 µM
C[C@H](CCC(=O)N1CCC(CN(C)S(C)(=O)=O)CC1)[C@H]1CC[C@H]2[C@@H]3CC=C4C[C@@H](O)CC[C@]4(C)[C@H]3CC[C@]12C [Example 230, N-((1-((R)-4-((3S,8S,9S,10R,13R,14S,17R)-3-hydroxy-10,13-dimethyl-2,3,4,7,8,9,10,11,12,13,14,15,16,17-tetradecahydro-1H-cyclopenta[a]phenanthren-17-yl)pentanoyl)piperidin-4-yl)methyl)-N-methylmethanesulfonamide]	–	> 10 µM
C[C@H](CCC(=O)N1CCN(C(=O)OCCO)CC1)[C@H]1CC[C@H]2[C@@H]3CC=C4C[C@@H](O)CC[C@]4(C)[C@H]3CC[C@]12C [Example 281, 2-hydroxyethyl 4-[(4R)-4-[(1R,3aS,3bS,7S,9aR,9bS,11aR)-7-hydroxy-9a,11a-dimethyl-1H,2H,3H,3aH,3bH,4H,6H,7H,8H,9H,9aH,9bH,10H,11H,11aH-cyclopenta[a]phenanthren-1-yl]pentanoyl]piperazine-1-carboxyla]	–	> 10 µM
C[C@H](CCC(=O)N1CCC(Oc2cccnc2)CC1)[C@H]1CC[C@H]2[C@@H]3CC=C4C[C@@H](O)CC[C@]4(C)[C@H]3CC[C@]12C [Example 219, (R)-4-((3S,8S,9S,10R,13R,14S,17R)-3-hydroxy-10,13-dimethyl-2,3,4,7,8,9,10,11,12,13,14,15,16,17-tetradecahydro-1H-cyclopenta[a]phenanthren-17-yl)-1-(4-(pyridin-3-yloxy)piperidin-1-yl)pentan-1-one]	–	> 10 µM
CC(NC(=O)C(C)(C)O)C1CCN(C(=O)CC[C@@H](C)[C@H]2CC[C@H]3[C@@H]4CC=C5C[C@@H](O)CC[C@]5(C)[C@H]4CC[C@]23C)CC1 (stereo partly drawn) [Example 227, 2-hydroxy-N-(1-(1-((R)-4-((3S,8S,9S,10R,13R,14S,17R)-3-hydroxy-10,13-dimethyl-2,3,4,7,8,9,10,11,12,13,14,15,16,17-tetradecahydro-1H-cyclopenta[a]phenanthren-17-yl)pentanoyl)piperidin-4-yl)ethyl)-2-methylpropanamide]	–	> 10 µM

Source: patent US20230340011A1 (Asteroid Therapeutics, priority 2022, published 2023)
